Laboratory results reported in patent US11596644B2, “Method for treating post-prandial hypoglycemia” (AVOLYNT, priority 2018, dated 2023).

Assays:
[1] = test system: healthy adult male volunteers; experiment: Single dose study in humans, pharmacodynamic parameters after breakfast; format: in vivo, human
Method: Single dose study in humans. A single oral dose of 2 mg, 5 mg, 10 mg, 20 mg, 40 mg, 80 mg, and 160 mg of mizagliflozin were administered to healthy adult male volunteers by a placebo-controlled, randomized, double-blind method. The single dose was administered orally immediately before breakfast with approximately 200 mL of water after fasting for at least 10 hours. Pharmacodynamic effect parameters (blood glucose level, insulin, GLP-1, and gastric inhibitory polypeptide (GIP)) were measured. Concentrations at each time point were measured, and summary statistics and coefficient variation (CV) were calculated for AUC0-t; t was up to 6 hours postdose. The time points were: before administration and 0.5, 1, 1.5, 2, 3, 4, 5, and 6 hours after administration. Blood glucose level and insulin were measured to evaluate in an exploratory manner the inhibitory effect on postprandial hyperglycemia. GLP-1 and GIP were measured to evaluate in an exploratory manner the incretin secretory action.

rat SGLT2 = molecular target: T1, rat SGLT2 (Rattus norvegicus, UniProt P53792); experiment: Inhibition of radiolabeled α-MG uptake into COS-7 cells transfected with rat SGLT2 (Dixon plot); format: cell-based; conditions: α-MG 0.3 and 1 mM
T1 construct: expressed in transfected cells; host or cells: COS-7
T1 sequence (P53792 1-670): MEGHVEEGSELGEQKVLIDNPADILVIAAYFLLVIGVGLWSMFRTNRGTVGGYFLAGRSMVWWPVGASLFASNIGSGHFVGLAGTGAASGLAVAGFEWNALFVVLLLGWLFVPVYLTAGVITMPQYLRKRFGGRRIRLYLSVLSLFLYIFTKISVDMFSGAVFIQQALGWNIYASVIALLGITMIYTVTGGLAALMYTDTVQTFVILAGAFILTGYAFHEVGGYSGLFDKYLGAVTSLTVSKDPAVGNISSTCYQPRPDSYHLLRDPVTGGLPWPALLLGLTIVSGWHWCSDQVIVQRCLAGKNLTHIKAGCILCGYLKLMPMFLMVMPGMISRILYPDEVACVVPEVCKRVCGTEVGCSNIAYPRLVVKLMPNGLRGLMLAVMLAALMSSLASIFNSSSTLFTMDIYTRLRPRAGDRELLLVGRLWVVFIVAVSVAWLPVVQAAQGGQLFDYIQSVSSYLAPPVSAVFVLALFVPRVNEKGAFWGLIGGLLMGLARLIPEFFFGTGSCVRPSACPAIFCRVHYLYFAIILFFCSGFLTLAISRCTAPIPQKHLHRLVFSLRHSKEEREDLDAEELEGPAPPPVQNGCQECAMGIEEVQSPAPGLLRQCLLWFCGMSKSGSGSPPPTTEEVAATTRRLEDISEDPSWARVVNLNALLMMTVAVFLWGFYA
Method: Selective inhibition study. Inhibition constants (Ki) of mizagliflozin for rat and human SGLT1 and SGLT2 were determined measuring concentration-dependent effects of test compound on uptake of radiolabeled methyl-α-D-glucopyranoside (α-MG) into COS-7 cells transiently transfected with cloned SGLT1 or SGLT2. Mizagliflozin was assessed at concentrations from 1 to 30 μM and 3 to 100 μM for human and rat SGLT2, respectively. It was assessed at concentrations from 30 nM to 1 μM and 10 to 30 nM for human and rat SGLT1, respectively. α-MG test concentrations were 0.3 and 1 mM. Data were analyzed and Ki determined using Dixon plots of initial transport rates. […] Inhibition constants were also determined for human SGLT1 and SGLT2.

[2] = single oral dose 2 mg before breakfast
[3] = single oral dose 5 mg before breakfast
[4] = single oral dose 10 mg before breakfast
[5] = single oral dose 20 mg before breakfast
[6] = single oral dose 40 mg before breakfast
[7] = single oral dose 80 mg before breakfast
[8] = single oral dose 160 mg before breakfast

Ki (rat SGLT2): 14 µM
Compound: Cc1cc(OCCCNCC(C)(C)C(N)=O)ccc1Cc1c(O[C@@H]2O[C@H](CO)[C@@H](O)[C@H](O)[C@H]2O)n[nH]c1C(C)C [mizagliflozin, 3-(3-{4-[3-(β-D-glucopyranosyloxy)-5-isopropyl-1H-pyrazol-4-ylmethyl-]-3-methylphenoxy}propylamino)-2,2-dimethylpropionamide]
AUC 0-6 GIP [1, 2]: 818.5 pg·h/mL
AUC 0-6 GLP-1 (active) [1, 2]: 23.7 pmol·h/L
AUC 0-6 Insulin [1, 2]: 123.2 uU*h/ml
AUC 0-6 glucose [1, 2]: 628.3 mg·h/dL
GIP (peak) [1, 2]: 183.6 pg/mL
GLP-1 (active) (peak) [1, 2]: 6.4 pmol/L
Glucose (peak) [1, 2]: 128.7 mg/dL
Insulin (peak) [1, 2]: 40.38 uU/ml
Time (h) to peak, GIP [1, 2]: 4 h
Time (h) to peak, GLP-1 (active) [1, 2]: 0.5 h
Time (h) to peak, glucose [1, 2]: 1.5 h
Time (h) to peak, insulin [1, 2]: 1.5 h
AUC 0-6 GIP [1, 3]: 856.9 pg·h/mL
AUC 0-6 GLP-1 (active) [1, 3]: 28.5 pmol·h/L
AUC 0-6 Insulin [1, 3]: 140.7 uU*h/ml
AUC 0-6 glucose [1, 3]: 631.3 mg·h/dL
GIP (peak) [1, 3]: 194.5 pg/mL
GLP-1 (active) (peak) [1, 3]: 6.1 pmol/L
Glucose (peak) [1, 3]: 130.3 mg/dL
Insulin (peak) [1, 3]: 47.1 uU/ml
Time (h) to peak, GIP [1, 3]: 3 h
Time (h) to peak, GLP-1 (active) [1, 3]: 0.5 h
Time (h) to peak, glucose [1, 3]: 1 h
Time (h) to peak, insulin [1, 3]: 1.5 h
AUC 0-6 GIP [1, 4]: 945.7 pg·h/mL
AUC 0-6 GLP-1 (active) [1, 4]: 41.5 pmol·h/L
AUC 0-6 Insulin [1, 4]: 120.4 uU*h/ml
AUC 0-6 glucose [1, 4]: 661.9 mg·h/dL
GIP (peak) [1, 4]: 252.3 pg/mL
GLP-1 (active) (peak) [1, 4]: 8.7 pmol/L
Glucose (peak) [1, 4]: 143.8 mg/dL
Insulin (peak) [1, 4]: 39 uU/ml
Time (h) to peak, GIP [1, 4]: 4 h
Time (h) to peak, GLP-1 (active) [1, 4]: 0.5 h
Time (h) to peak, glucose [1, 4]: 1.5 h
Time (h) to peak, insulin [1, 4]: 2 h
AUC 0-6 GIP [1, 5]: 783.9 pg·h/mL
AUC 0-6 GLP-1 (active) [1, 5]: 55.8 pmol·h/L
AUC 0-6 Insulin [1, 5]: 89.7 uU*h/ml
AUC 0-6 glucose [1, 5]: 612.9 mg·h/dL
GIP (peak) [1, 5]: 216.7 pg/mL
GLP-1 (active) (peak) [1, 5]: 11.6 pmol/L
Glucose (peak) [1, 5]: 113.7 mg/dL
Insulin (peak) [1, 5]: 25.9 uU/ml
Time (h) to peak, GIP [1, 5]: 4 h
Time (h) to peak, GLP-1 (active) [1, 5]: 1.5 h
Time (h) to peak, glucose [1, 5]: 2 h
Time (h) to peak, insulin [1, 5]: 3 h
AUC 0-6 GIP [1, 6]: 591.4 pg·h/mL
AUC 0-6 GLP-1 (active) [1, 6]: 32.6 pmol·h/L
AUC 0-6 Insulin [1, 6]: 99.7 uU*h/ml
AUC 0-6 glucose [1, 6]: 629.1 mg·h/dL
GIP (peak) [1, 6]: 166.7 pg/mL
GLP-1 (active) (peak) [1, 6]: 7.5 pmol/L
Glucose (peak) [1, 6]: 130.3 mg/dL
Insulin (peak) [1, 6]: 33.8 uU/ml
Time (h) to peak, GIP [1, 6]: 4 h
Time (h) to peak, GLP-1 (active) [1, 6]: 0.5 h
Time (h) to peak, glucose [1, 6]: 1.5 h
Time (h) to peak, insulin [1, 6]: 1.5 h
AUC 0-6 GIP [1, 7]: 621.5 pg·h/mL
AUC 0-6 GLP-1 (active) [1, 7]: 24.1 pmol·h/L
AUC 0-6 Insulin [1, 7]: 70.9 uU*h/ml
AUC 0-6 glucose [1, 7]: 611.92 mg·h/dL
GIP (peak) [1, 7]: 161.6 pg/mL
GLP-1 (active) (peak) [1, 7]: 5.5 pmol/L
Glucose (peak) [1, 7]: 116 mg/dL
Insulin (peak) [1, 7]: 20.5 uU/ml
Time (h) to peak, GIP [1, 7]: 5 h
Time (h) to peak, GLP-1 (active) [1, 7]: 2 h
Time (h) to peak, glucose [1, 7]: 3 h
Time (h) to peak, insulin [1, 7]: 3 h
AUC 0-6 GIP [1, 8]: 445.5 pg·h/mL
AUC 0-6 GLP-1 (active) [1, 8]: 39.5 pmol·h/L
AUC 0-6 Insulin [1, 8]: 62.7 uU*h/ml
AUC 0-6 glucose [1, 8]: 606.2 mg·h/dL
GIP (peak) [1, 8]: 117.9 pg/mL
GLP-1 (active) (peak) [1, 8]: 7.9 pmol/L
Glucose (peak) [1, 8]: 106.5 mg/dL
Insulin (peak) [1, 8]: 16.2 uU/ml
Time (h) to peak, GIP [1, 8]: 5 h
Time (h) to peak, GLP-1 (active) [1, 8]: 2 h
Time (h) to peak, glucose [1, 8]: 3 h
Time (h) to peak, insulin [1, 8]: 3 h
